These results are taken from US5610320A, “Sulfonamide phenyl substituted compounds” (Eisai Co., Ltd., priority 1990, dated 1997).

What is called IC50 is the concentration that gives 50% inhibition.

≈ marks a conversion by molar mass, not a printed value. Like-named read-outs stand apart in the source and are kept apart here.

The test system of the test is KB cells (human nasopharyngeal cells). Kind of test: In vitro antineoplastic test on KB cells (MTT, 3 days). Format: cell-based. Particulars: 72 h.
[1] abbreviates: KB cells in vitro, 37° C. for three days, MTT, read-out: IC50.

Description: In vitro antineoplastic test on KB cells (human nasopharyngeal cells):
1.25×10^3 (0.1 ml) of KB cells suspended in a RPMI 1640 medium (a product of Nissui Seiyaku Co., Ltd.) containing 20% of bovine fetus serum, penicillin (100 units/ml), streptomycin (100 μg/ml), mercaptoethanol (5×10^-5 M) and sodium pyruvate (1 mM) were placed in each hole of a 96-hole flat-bottom microplate and cultured in an incubator containing 5% of carbon dioxide at 37° C. for one day.
This concentration was the maximum one, which was subjected to two-fold serial dilution with 0.1% bovine fetus serum RPMI 1640 culture liquid containing 0.5% of dimethyl sulfoxide. It was added to the KB cells in each hole of the above-described culture plate in an amount of 0.1 ml and cultured in an incubator containing 5% of carbon dioxide at 37° C. for three days.
After the completion of the culture, 0.05 ml of MTT [3-(4,5-dimethylthiazol-2-yl)-2,5-diphenyltetrazolium bromide] solution (3.3 mg/ml) was added to each hole and the culture was conducted for an additional 1 h. The supernatant liquid was removed from each hole by suction and a formazan thus formed was dissolved in 0.1 ml of dimethyl sulfoxide. The absorbance at 540 nm was determined with a microplate reader to use as an index of a viable count. A percentage inhibition was calculated according to the following formula and the concentration of the test compound for 50% inhibition (IC50) was determined.
Percentage inhibition (%)=(C-T)/C×100
T: absorbance of the hole containing the test compound
C: absorbance of the hole containing no test compound

With `COCOc1ccc(Nc2ncccc2NS(=O)(=O)c2ccc(OC)cc2)cc1` [Example 5, 4-Methoxy-N-[2-[(4-methoxymethyloxyphenyl)amino]-3-pyridyl-]benzenesulfonamide], under setting [1], the IC50 was 0.73 µg/mL (≈ 1.76 µM). The same measure, in the same setting: for `COc1ccc(S(=O)(=O)Nc2cccnc2Nc2ccc(C)cc2)cc1` [Example 8, 4-Methoxy-N-[2-[(4-methylphenyl)amino]-3-pyridyl]benzenesulfonamide] the value was 0.89 µg/mL (≈ 2.41 µM); for `COc1ccc(S(=O)(=O)Nc2cccnc2Nc2ccccc2F)cc1` [Example 9, N-[2-[(2-Fluorophenyl)amino]-3-pyridyl]-4-methoxybenzenesulfonamide], 0.34 µg/mL (≈ 0.911 µM). On the same count and under the same terms, in the case of `COc1ccc(S(=O)(=O)Nc2cccnc2Nc2cccc(F)c2)cc1` [Example 10, N-[2-[(3-Fluorophenyl)amino]-3-pyridyl]-4-methoxybenzenesulfonamide] it was 0.21 µg/mL (≈ 0.562 µM). Still for that read-out and setting: in the case of `COc1ccc(S(=O)(=O)Nc2cccnc2Nc2ccc(F)cc2)cc1` [Example 11, N-[2-[(4-Fluorophenyl)amino]-3-pyridyl]-4-methoxybenzenesulfonamide] it was 0.33 µg/mL (≈ 0.884 µM). In the case of `COc1ccc(S(=O)(=O)Nc2cccnc2Nc2cccc(OC)c2)cc1` [Example 13, 4-Methoxy-N-[2-[(3-methoxyphenyl)amino]-3-pyridyl]benzenesulfonamide], the IC50 under setting [1] is 2.6 µg/mL (≈ 6.75 µM). Same read-out and setting: in the case of `COc1ccc(S(=O)(=O)Nc2cccnc2Nc2ccccc2OC)cc1` [Example 16, 4-Methoxy-N-[2-[(2-methoxyphenyl)amino]-3-pyridyl]benzenesulfonamide] it was 1.5 µg/mL (≈ 3.89 µM); in that of `COc1ccc(S(=O)(=O)Nc2cccnc2Nc2cccc(C)c2)cc1` [Example 17, 4-Methoxy-N-[2-[(3-methylphenyl)amino]-3-pyridyl]benzenesulfonamide], 0.94 µg/mL (≈ 2.54 µM); in that of `COc1ccc(S(=O)(=O)Nc2cccnc2Nc2ccccc2C)cc1` [Example 18, 4-Methoxy-N-[2-[2(2-methylphenyl)amino]-3-pyridyl]benzenesulfonamide], 0.73 µg/mL (≈ 1.98 µM).

As to `Nc1ccc(S(=O)(=O)Nc2cccnc2Nc2ccccc2)cc1` [Example 21, 4-Amino-N-(2-anilino-3-pyridyl)benzenesulfonamide], the IC50 under setting [1] amounted to 1.1 µg/mL (≈ 3.23 µM).

Take `CCOc1ccc(S(=O)(=O)Nc2cccnc2Nc2ccccc2)cc1` [Example 27, N-(2-Anilino-3-pyridyl)-4-ethoxybenzenesulfonamide]: under setting [1], the IC50 was determined as 1.4 µg/mL (≈ 3.79 µM).

On to `COc1ccc(S(=O)(=O)Nc2cccnc2Nc2cccc(O)c2)cc1` [Example 34, N-[2-[(3-Hydroxyphenyl)amino]-3-pyridyl]-4-methoxybenzenesulfonamide], for which, under setting [1], the IC50 worked out at 0.11 µg/mL (≈ 0.296 µM). Same read-out and setting: in the case of `CCOc1ccc(Nc2ncccc2NS(=O)(=O)c2ccc(OC)cc2)cc1` [Example 35, N-[2-[(4-Ethoxyphenyl)amino]-3-pyridyl]-4-methoxybenzenesulfonamide] it was 0.45 µg/mL (≈ 1.13 µM); in that of `COc1ccc(S(=O)(=O)Nc2cccnc2Nc2ccc(O)c(C)c2)cc1` [Example 36, N-[2-[(4-hydroxy-3-methylphenyl)amino]-3-pyridyl]-4-methoxybenzenesulfonamide], 0.72 µg/mL (≈ 1.87 µM); in that of `CCOC(=O)c1ccc(Nc2ncccc2NS(=O)(=O)c2ccc(OC)cc2)cc1` [Example 37, Ethyl 4-[[3-(4-methoxybenzenesulfonamido)-2-pyridyl]amino]benzoate], 1.3 µg/mL (≈ 3.04 µM).

In the case of `COc1ccc(S(=O)(=O)Nc2cccnc2Nc2ccc(Oc3ccccc3)cc2)cc1` [Example 40, 4-Methoxy-N-[2-[(4-phenoxyphenyl)amino]-3-pyridyl]benzenesulfonamide], the IC50 under setting [1] was 2.1 µg/mL (≈ 4.69 µM). The same measure, in the same setting: in the case of `COc1ccc(S(=O)(=O)Nc2cccnc2Nc2ccc(Cl)cc2)cc1` [Example 42, N-[2-[(4-Chlorophenyl)amino]-3-pyridyl]-4-methoxybenzenesulfonamide] it was 0.59 µg/mL (≈ 1.51 µM).

For `COc1ccc(S(=O)(=O)Nc2cccnc2Nc2ccccc2O)cc1` [Example 43, N-[2-[(2-Hydroxyphenyl)amino]-3-pyridyl]-4-methoxybenzenesulfonamide], the IC50 under setting [1] was 0.26 µg/mL (≈ 0.7 µM).

For the compound `COc1ccc(S(=O)(=O)Nc2c(Nc3ccccc3)ncnc2OC)cc1` [Example 47, N-(4-Anilino-6-methoxy-5-pyrimidyl)-4-methoxybenzenesulfonamide], the IC50 under setting [1] is 2.6 µg/mL (≈ 6.73 µM). For the compound `COc1ccc(S(=O)(=O)Nc2cccnc2Nc2ccc(OC(=O)N(C)C)cc2)cc1` [Example 52, N-[2-[(4-Dimethylcarbamoyloxyphenyl)amino]-3-pyridyl]-4-methoxybenzenesulfonamide], the IC50 (KB) amounted to 0.54 µg/mL (≈ 1.22 µM). Consider `COc1ccc(S(=O)(=O)Nc2ccc(OC)nc2Nc2ccccc2)cc1` [Example 54, N-(2-Anilino-6-methoxy-3-pyridyl)-4-methoxybenzene sulfonamide], for which, under setting [1], the IC50 is 0.54 µg/mL (≈ 1.4 µM). The same measure, in the same setting: for `COc1ccc(S(=O)(=O)Nc2ccccc2Nc2ncccn2)cc1` [Example 57, 4-Methoxy-N-[2-[(2-pyrimidyl)amino]phenyl]benzenesulfonamide] the value was 0.17 µg/mL (≈ 0.477 µM); for `COc1ccc(S(=O)(=O)Nc2ccccc2Nc2ccccc2)cc1` [Example 58, N-(2-Anilinophenyl)-4-methoxybenzenesulfonamide], 1.2 µg/mL (≈ 3.39 µM); for `COc1ccc(S(=O)(=O)Nc2cccnc2Nc2ccc(OC(=O)c3ccccc3)cc2)cc1` [Example 59, N-[2-[(4-Benzoyloxyphenyl)amino]-3-pyridyl]-4-methoxybenzenesulfonamide], 0.18 µg/mL (≈ 0.379 µM). On the same count and under the same terms, in the case of `COc1ccc(S(=O)(=O)Nc2cccnc2Nc2ccc(OC(=O)CN)cc2)cc1.Cl.Cl` [Example 61, N-[2-[[4-(Aminoacetyloxy)phenyl]amino]-3-pyridyl]-4-methoxybenzenesulfonamide dihydrochloride] it was 0.83 µg/mL.

`COc1ccc(Nc2ncccc2N(C)S(=O)(=O)c2ccc(OC)cc2)cc1` [Example 62, 4-Methoxy-N-[2-[(4-methoxyphenyl)amino]-3-pyridyl]-N-methylbenzenesulfonamide]: the IC50 under setting [1] turned out to be 0.53 µg/mL (≈ 1.33 µM). The same measure, in the same setting: for `COc1ccc(S(=O)(=O)Nc2cccnc2Nc2ccc(OC(=O)c3ccccc3N)cc2)cc1` [Example 63, N-[2-[[4-(2-Aminobenzoyloxy)phenyl]amino]-3-pyridyl]-4-methoxybenzenesulfonamide] the value was 0.2 µg/mL (≈ 0.408 µM); for `COc1ccc(S(=O)(=O)Nc2cccnc2Nc2ccc(OP(=O)(O)O)cc2)cc1` [Example 64, 4-[[3-(4-Methoxybenzenesulfonamido)-2-pyridyl]amino]phenyl dihydrogenphosphate], 0.55 µg/mL (≈ 1.22 µM).

Take `COc1ccc(S(=O)(=O)Nc2cccnc2Nc2cccc(OP(=O)(O)O)c2)cc1` [Example 65, 3-[[3-(4-Methoxybenzenesulfonamido)-2-pyridyl]amino]phenyl dihydrogenphosphate]: under setting [1], the IC50 worked out at 0.2 µg/mL (≈ 0.443 µM). Take `COc1ccc(S(=O)(=O)Nc2ccccc2Nc2ccc(O)cc2)cc1` [Example 67, N-[2-[(4-Hydroxyphenyl)amino]phenyl]-4-methoxybenzenesulfonamide]: the IC50 under setting [1] amounted to 1.4 µg/mL (≈ 3.78 µM). The same measure, in the same setting: in the case of `COc1ccc(S(=O)(=O)Nc2cccnc2Nc2ccc(OC(=O)C(C)(C)C)cc2)cc1` [Example 68, 4-Methoxy-N-[2-[(4-pivaloyloxyphenyl)amino]-3-pyridyl]benzenesulfonamide] it was 0.17 µg/mL (≈ 0.373 µM). Still for that read-out and setting: for `COc1ccc(S(=O)(=O)Nc2ccccc2NC(=O)c2cnccc2C)cc1` [Example 71, N-[2-(4-Methoxybenzenesulfonamido)phenyl]-4-methylnicotinamide] the value was 0.11 µg/mL (≈ 0.277 µM). Same read-out and setting: in the case of `COc1ccc(S(=O)(=O)Nc2ccccc2NC(=O)c2ccncc2C)cc1` [Example 72, N-[2-(4-Methoxybenzenesulfonamido)phenyl]-3-methylisonicotinamide] it was 0.012 µg/mL (≈ 0.0302 µM). For `COc1ccc(S(=O)(=O)Nc2ccccc2Nc2ccccn2)cc1` [Example 76, 4-Methoxy-N-[2-[(2-pyridyl)amino]phenyl]benzenesulfonamide], the IC50 under setting [1] came to 0.13 µg/mL (≈ 0.366 µM). On the same count and under the same terms, for `COc1ccc(S(=O)(=O)Nc2ccccc2NC(=O)c2ccc(F)cc2)cc1` [Example 82, 4-Fluoro-N-[2-(4-methoxybenzenesulfonamido)phenyl]benzamide] the value was 0.026 µg/mL (≈ 0.0649 µM). Same read-out and setting: for `COc1ccc(S(=O)(=O)Nc2ccccc2NC(=O)c2ccco2)cc1` [Example 85, N-[2-(4-Methoxybenzenesulfonamido)phenyl]-2-furancarboxamide] the value was 0.01 µg/mL (≈ 0.0269 µM); for `COc1ccc(S(=O)(=O)Nc2ccccc2NC(=O)c2ccncc2)cc1` [Example 88, N-[2-(4-Methoxybenzenesulfonamido)phenyl]isonicotinamide], 0.01 µg/mL (≈ 0.0261 µM). The same measure, in the same setting: in the case of `COc1ccc(S(=O)(=O)Nc2cccc(C)c2NC(=O)c2ccncc2)cc1` [Example 91, N-[2-(4-Methoxybenzenesulfonamido)-6-methylphenyl]isonicotinamide] it was 0.079 µg/mL (≈ 0.199 µM). With `COc1ccc(S(=O)(=O)Nc2ccccc2NC(=O)c2ccc(F)cc2Cl)cc1` [Example 94, 2-Chloro-4-fluoro-N-[2-(4-methoxybenzenesulfonamido)phenyl]benzamide], the IC50 under setting [1] was 0.064 µg/mL (≈ 0.147 µM). On the same count and under the same terms, in the case of `COc1ccc(S(=O)(=O)Nc2ccccc2NC(=O)c2ccccc2C)cc1` [Example 95, N-[2-(4-Methoxybenzenesulfonamido)phenyl]-2-methylbenzamide] it was 0.045 µg/mL (≈ 0.114 µM); in that of `COc1ccc(S(=O)(=O)Nc2ccccc2NC(=S)c2ccc(F)cc2)cc1` [Example 97, 4-Fluoro-N-[2-(4-methoxybenzenesulfonamido)phenyl]benzothioamide], 0.15 µg/mL (≈ 0.36 µM); in that of `COc1ccc(S(=O)(=O)Nc2ccc(F)cc2NC(=O)c2ccccc2)cc1` [Example 98, N-[5-fluoro-2-(4-methoxybenzenesulfonamido)phenyl]benzamide], 0.079 µg/mL (≈ 0.197 µM).

For the compound `COc1ccc(S(=O)(=O)Nc2ccccc2NC(C)=O)cc1` [Example 101, N-[2-(4-Methoxybenzenesulfonamido)phenyl]acetamide], the IC50 under setting [1] came to 0.1 µg/mL (≈ 0.312 µM). Turning to `CCNC(=O)Nc1ccccc1NS(=O)(=O)c1ccc(OC)cc1` [Example 104, N-[2-[(Ethylaminocarbonyl)amino]phenyl]-4-methoxybenzenesulfonamide], the IC50 under setting [1] worked out at 0.099 µg/mL (≈ 0.283 µM). On the same count and under the same terms, in the case of `Nc1ccc(S(=O)(=O)Nc2ccccc2NC(=O)c2ccc(F)cc2)cc1` [Example 106, N-[2-(4-Aminobenzenesulfonamido)phenyl]-4-fluorobenzamide] it was 0.3 µg/mL (≈ 0.778 µM).
